Measured values: patent US9802942B2, “Substituted 4-methyl-pyrrolo[1,2-A]pyrimidine-8-carboxamide compounds and uses thereof for modulating glucocerebrosidase activity” (Northwestern University, priority 2015, dated 2017)

Target: T1, glucocerebrosidase (GCase), recombinant wt. enzyme velaglucerase alfa (Homo sapiens, UniProt P04062)
T1 construct: purchased Shire Human Genetic Therapies, Inc. Vpriv
T1 sequence (P04062 40-536): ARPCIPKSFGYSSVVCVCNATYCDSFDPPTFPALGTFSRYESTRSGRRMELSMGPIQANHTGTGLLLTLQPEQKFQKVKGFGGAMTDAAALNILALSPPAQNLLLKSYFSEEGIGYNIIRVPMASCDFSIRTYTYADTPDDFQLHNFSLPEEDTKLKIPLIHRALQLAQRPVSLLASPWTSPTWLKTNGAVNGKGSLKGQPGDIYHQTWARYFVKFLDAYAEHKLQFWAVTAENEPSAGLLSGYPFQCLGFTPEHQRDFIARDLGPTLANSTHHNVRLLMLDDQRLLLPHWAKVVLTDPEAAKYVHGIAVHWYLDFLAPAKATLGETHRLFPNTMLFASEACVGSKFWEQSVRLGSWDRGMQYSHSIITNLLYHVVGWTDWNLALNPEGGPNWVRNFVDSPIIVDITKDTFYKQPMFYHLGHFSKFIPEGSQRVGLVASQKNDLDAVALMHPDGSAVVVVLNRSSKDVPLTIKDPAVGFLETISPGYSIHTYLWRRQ
Assay: Glucocerebrosidase activity assay with blue substrate (4MU-Glc)
Type: biochemical
Settings: Table 1; for AC50: titration 24 nM to 50 μM, substrate not given, read-out: Ac50
Protocol: The compounds in DMSO solution 0.5 μL/well were transferred to a black 96-well plate (the final titration was 24 nM to 50 μM, 12 concentrations, 2 times dilution). 33.5 μL enzyme solution (7.5 nM final concentration) was transferred to the wells. After 5 min of incubation at room temperature, the enzyme reaction was initiated by the addition of 33 μL/well blue substrate or 66.5 μL/well red substrate. Final concentrations of the blue substrate (4MU-Glc) and red substrate (Res-Glc) were 1.5 mM and 30 μM, respectively. The red substrate reaction was measured in the Biotek Synergy H1 multi-mode plate reader with Ex=573 nm and Em=610 nm at 37° C. every 20 sec for 30 min. The blue substrate reaction was terminated by the addition of 33 μL/well stop solution (1 M NaOH and 1 M glycine mixture, pH 10) after 30 min of incubation at 37° C. The fluorescence was then measured in the plate reader at Ex=365 nm and Em=440 nm.
The recombinant wt. enzyme velaglucerase alfa (Vpriv®, Shire Human Genetic Therapies, Inc.) was obtained from residual solution after clinical infusions. The GCase activity assay buffer was composed of 50 mM citric acid, 176 mM K2HPO4, and 0.01% Tween-20 at pH 5.9. A solution of 1 M sodium hydroxide and 1 M glycine was used as the stop solution for the 4MU-β-glc substrate assay.
The compounds in DMSO solution 0.5 μL/well was transferred to a black 96-well plate (the final titration was 24 nM to 50 μM, 12 concentrations). 33.5 μL enzyme solution (7.5 nM final concentration) was transferred to the wells. After 5 min of incubation at room temperature, the enzyme reaction was initiated by the addition of 33 μL/well 4MU-Glc substrate or 66.5 μL/well red substrate. Final concentrations of the 4MU-Glc substrate and Res-Glc substrate were 1.5 mM and 30 μM, respectively. The red substrate reaction was measured in the Biotek Synergy H1 multi-mode plate reader with Ex=573 nm and Em=610 nm at 37° C. in every 20 seconds for 30 min. The 4MU-Glc substrate reaction was terminated by the addition of 33 μL/well stop solution (1 M NaOH and 1 M glycine mixture, pH 10) after 30 min of incubation at 37° C. The fluorescence was then measured in the plate reader with Ex=365 nm and Em=440 nm.

| AC50 [µM] | Activator / Inhibitor (word in Ac50 cell) | Compound |
| --- | --- | --- |
| 0.14 |  | C#Cc1ccc(NC(=O)c2ccn3c(C)cc(C)nc23)cc1 [compound 1] |
| 0.8 |  | Cc1cc(C)n2ccc(C(=O)Nc3ccc(C(F)(F)F)cc3)c2n1 [compound 5] |
| 112 |  | Cc1cc(C)n2ccc(C(=O)Nc3ccc(CN4CCOCC4)cc3)c2n1 [compound 7] |
| 39.8 |  | Cc1cc(C)n2ccc(C(=O)Nc3ccc(CN4CCN(C)CC4)cc3)c2n1 [compound 8] |
| 70.8 |  | Cc1cc(C)n2ccc(C(=O)Nc3ccc(CN4CCCCC4)cc3)c2n1 [compound 9] |
| 7.08 |  | Cc1cc(C)n2ccc(C(=O)Nc3ccc(N4CCN(C)CC4)cc3)c2n1 [compound 10] |
| 31.6 |  | CCN1CCN(c2ccc(NC(=O)c3ccn4c(C)cc(C)nc34)cc2)CC1 [compound 11] |
| 5.01 |  | Cc1cc(C)n2ccc(C(=O)Nc3ccc(N4CCN(Cc5ccccc5)CC4)cc3)c2n1 [compound 12] |
| 0.79 |  | Cc1cc(C)n2ccc(C(=O)Nc3ccc(Cc4ccccc4)cc3)c2n1 [compound 13] |
| 31.6 |  | Cc1cc(C)n2ccc(C(=O)Nc3ccc(CCN4CCOCC4)cc3)c2n1 [compound 14] |
| 39.8 |  | Cc1cc(C)n2ccc(C(=O)Nc3ccc(CCN4CCCCC4)cc3)c2n1 [compound 15] |
| 44.7 |  | Cc1cc(C)n2ccc(C(=O)Nc3ccc(CCN4CCN(C)CC4)cc3)c2n1 [compound 16] |
| 3.55 |  | Cc1cc(C)n2ccc(C(=O)Nc3ccc(N(C)C)cc3)c2n1 [compound 17] |
| 1.58 |  | Cc1cc(C)n2ccc(C(=O)Nc3ccc(N4CCCCC4)cc3)c2n1 [compound 18] |
| 1.41 |  | Cc1cc(C)n2ccc(C(=O)Nc3ccc(N4CCOCC4)cc3)c2n1 [compound 19] |
| 14.1 |  | Cc1cc(C)n2ccc(C(=O)Nc3ccc(CN(C)C)cc3)c2n1 [compound 20] |
| 39.8 |  | Cc1cc(C)n2ccc(C(=O)Nc3nccc4ccccc34)c2n1 [compound 21] |
| 25.1 |  | Cc1cc(C)n2ccc(C(=O)Nc3ccncc3)c2n1 [compound 22] |
| 22.4 |  | Cc1cc(C)n2ccc(C(=O)Nc3ccccn3)c2n1 [compound 23] |
| 1.41 |  | Cc1cc(C)n2ccc(C(=O)Nc3ccc(-c4ccccc4)cc3)c2n1 [compound 24] |
| 0.51 |  | Cc1cc(C)n2ccc(C(=O)Nc3ccc(N4CCCC4)cc3)c2n1 [compound 25] |

| AC50 [µM] | Activator / Inhibitor (word in Ac50 cell) | Compound |
| --- | --- | --- |
| 1.26 |  | Cc1cc(C)n2ccc(C(=O)Nc3nc4ccccc4[nH]3)c2n1 [compound 26] |
| 15.8 |  | Cc1cc(C)n2ccc(C(=O)NC3CCCCC3)c2n1 [compound 27] |
| 3.98 |  | Cc1cc(C)n2ccc(C(=O)NC3CCc4ccccc43)c2n1 (stereo not shown) [compound 28] |
| 2.51 |  | Cc1cc(C)n2ccc(C(=O)NC3Cc4ccccc4C3)c2n1 [compound 29] |
| 2.82 |  | Cc1cc(C)n2ccc(C(=O)Nc3ccc(CCO)cc3)c2n1 [compound 30] |
| 0.4 |  | Cc1cc(C)n2ccc(C(=O)Nc3nc4ccccc4s3)c2n1 [compound 31] |
| 50 |  | Cc1cc(C)n2ccc(C(=O)NC3CCN(Cc4ccccc4)CC3)c2n1 [compound 32] |
| 30 |  | Cc1cc(C)n2ccc(C(=O)NC3CCN(C(C)C)CC3)c2n1 [compound 34] |
| 22.4 |  | Cc1cc(C)n2ccc(C(=O)NC3CCN(c4ccccc4)CC3)c2n1 [compound 35] |
| 107 |  | Cc1cc(C)n2ccc(C(=O)Nc3ccc(-n4ccnc4)cc3)c2n1 [compound 36] |
| 40 |  | Cc1cc(C)n2ccc(C(=O)NC3CCC(N(C)C)CC3)c2n1 (stereo not shown) [compound 37] |
| 0.79 |  | Cc1cc(C)n2ccc(C(=O)Nc3ccc(C#Cc4ccccc4)cc3)c2n1 [compound 38] |
| 39.8 |  | Cc1cc(C)n2ccc(C(=O)Nc3nc4c(s3)CN(C)CC4)c2n1 [compound 39] |
| 39.9 |  | Cc1cc(C)n2ccc(C(=O)Nc3nc4cc(Cl)ccc4s3)c2n1 [compound 41] |
| 50.2 |  | Cc1cc(C)n2ccc(C(=O)Nc3nc4cc(F)ccc4s3)c2n1 [compound 42] |
| 0.2 |  | Cc1cc(C)n2ccc(C(=O)Nc3nc4c(C)cccc4s3)c2n1 [compound 43] |
| 22.4 |  | CCc1nnc(NC(=O)c2ccn3c(C)cc(C)nc23)s1 [compound 44] |
| 35.5 |  | Cc1cc(C)n2ccc(C(=O)Nc3ncc4ccccc4n3)c2n1 [compound 45] |
| 0.45 |  | Cc1cc(C)n2ccc(C(=O)Nc3cnn4c(C)cc(C)nc34)c2n1 [compound 46] |
|  | Inhibitor | COc1ccc2nc(NC(=O)c3ccn4c(C)cc(C)nc34)sc2c1 [compound 47] |
| 0.2 |  | Cc1ccc2nc(NC(=O)c3ccn4c(C)cc(C)nc34)sc2c1 [compound 48] |

| AC50 [µM] | Activator / Inhibitor (word in Ac50 cell) | Compound |
| --- | --- | --- |
| 39.8 |  | CCCn1cnc(NC(=O)c2ccn3c(C)cc(C)nc23)n1 [compound 49] |
| 10 |  | Cc1cc(C)n2ccc(C(=O)Nc3ccc(N4CCC(N(C)C)CC4)cc3)c2n1 [compound 50] |
| 15.8 |  | Cc1cc(C)n2ccc(C(=O)NCc3cccs3)c2n1 [compound 51] |
| 0.2 |  | Cc1cc(C)n2ccc(C(=O)Nc3ccc(N=[N+]=[N-])cc3)c2n1 [compound 52] |
| 0.14 |  | Cc1cc(C)n2ccc(C(=O)Nc3ccc(C(=O)c4ccccc4)cc3)c2n1 [compound 53] |
| 0.56 |  | Cc1cc(C)n2ccc(C(=O)Nc3ccc(Oc4ccccc4)cc3)c2n1 [compound 54] |
| 15.8 |  | Cc1cc(C)n2ccc(C(=O)Nc3ccc(OCCC(=O)O)cc3)c2n1 [compound 56] |
| 7.08 | Activator | Cc1cc(C)n2ccc(C(=O)Nc3ccc(-c4cn(CCCCC(=O)O)nn4)cc3)c2n1 [compound 57] |
| 1.78 | Activator | Cc1cc(C)n2ccc(C(=O)Nc3ccc(-c4cn(CCCCCCC(=O)O)nn4)cc3)c2n1 [compound 58] |
| 1.78 | Activator | Cc1cc(C)n2ccc(C(=O)Nc3ccc(-c4cn(CCCCCCCCC(=O)O)nn4)cc3)c2n1 [compound 59] |
| 0.63 | Activator | Cc1cc(C)n2ccc(C(=O)Nc3ccc(-c4cn(CCCCC(=O)ON5C(=O)CCC5=O)nn4)cc3)c2n1 [compound 60] |
| 0.4 |  | Cc1cc(C)n2ccc(C(=O)Nc3ccc(-c4cn(CCCCCCC(=O)ON5C(=O)CCC5=O)nn4)cc3)c2n1 [compound 61] |
| 0.45 | Activator | Cc1cc(C)n2ccc(C(=O)Nc3ccc(-c4cn(CCCCCCCCC(=O)ON5C(=O)CCC5=O)nn4)cc3)c2n1 [compound 62] |
| 39.8 |  | Cc1cc(C)n2ccc(C(=O)Nc3ccc(-c4cn(CCN(C)C)nn4)cc3)c2n1 [compound 63] |
| 7.07 |  | Cc1cc(C)n2ccc(C(=O)Nc3ccc(-c4cn(CCCN)nn4)cc3)c2n1 [compound 64] |
| 7.08 |  | Cc1cc(C)n2ccc(C(=O)Nc3ccc(-c4cn(CCOCCN)nn4)cc3)c2n1 [compound 65] |
| 7.94 |  | Cc1cc(C)n2ccc(C(=O)Nc3ccc(-c4cn(CCOCCOCCOCCN)nn4)cc3)c2n1 [compound 66] |
| 8.91 |  | Cc1cc(C)n2ccc(C(=O)Nc3ccc(-c4cn(CCOCCOCCC(=O)NCCN5CCOCC5)nn4)cc3)c2n1 [compound 67] |
| 10 |  | Cc1cc(C)n2ccc(C(=O)Nc3ccc(-c4cn(CCOCCOCCC(=O)NCCC5CCCN5C)nn4)cc3)c2n1 (stereo not shown) [compound 68] |
| 2 |  | Cc1cc(C)n2ccc(C(=O)Nc3ccc(-c4cn(CCOCCOCCC(=O)NC5CCCCC5)nn4)cc3)c2n1 [compound 69] |
